What was measured:
[1] = target: T1, Act c 8 (Actinidia chinensis, UniProt D1YSM4); assay: 1H-15N HSQC NMR titration (chemical shift perturbations); assay type: binding
T1 construct: gene ypr-10
T1 sequence (D1YSM4 1-159): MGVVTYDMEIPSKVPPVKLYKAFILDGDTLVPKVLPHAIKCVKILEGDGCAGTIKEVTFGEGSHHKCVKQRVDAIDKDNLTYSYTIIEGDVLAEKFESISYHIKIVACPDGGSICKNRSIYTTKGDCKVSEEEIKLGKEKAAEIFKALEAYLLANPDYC

[2] = target: T2, Act d 8 (Actinidia deliciosa, UniProt D1YSM5); assay: as above; assay type: binding
T2 construct: gene ypr-10
T2 sequence (D1YSM5 1-157): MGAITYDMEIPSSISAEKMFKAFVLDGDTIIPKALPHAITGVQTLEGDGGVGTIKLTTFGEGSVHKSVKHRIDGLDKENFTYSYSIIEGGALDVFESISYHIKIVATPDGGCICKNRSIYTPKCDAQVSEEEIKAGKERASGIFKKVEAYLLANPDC

Kd [1]: 30 mM
Kd [2]: 5 mM
SMILES: Oc1cccc(O)c1O [pyrogallol]

Source: article PMC10649968, “Structural Basis of the Immunological Cross-Reactivity between Kiwi and Birch Pollen” (Foods, 2023)
